Patent US5834487A, “Inhibition of 26S and 20S proteasome by indanones” (CV Therapeutics, priority 1996, dated 1998)

These compounds were tested against T1, 20S catalytic subunit of the proteasome (multicatalytic proteinase complex) (Bos taurus, UniProt Q32KL2) (assay: 20S proteasome chymotryptic activity, fluorogenic peptide cleavage). Details: 50 μM succinyl-leu-leu-val-tyr-7-amino-4-methyl coumarin, 15 minutes at 37° C, pH7.5.
T1 construct: was purified to homogeneity from bovine brain according to published methods; from tissue; host or cells: bovine brain
Format: biochemical, bovine
Procedure: Compounds of this invention prepared according to the method of Example 1 were tested as follows. The 20S catalytic subunit of the proteasome (also known as the multicatalytic proteinase complex) was purified to homogeneity from bovine brain according to published methods (Wilk S. and Orlowski, M, 40 842 J. Neurochem (1983)). The chymotryptic activity of the complex is measured by the increase in fluorescence following cleavage of the substrate peptide succinyl-leucine-leucine-valine-tyrosine-7-amino-4-methyl coumarin. The standard in vitro assay consists of 2 μg 20S proteasome, 0.1-100 μg/ml proteasome inhibitor in 200 μl 50 mM HEPES, containing 0.1% sodium dodecyl sulphate, pH7.5. The proteolytic reaction is initiated by the addition of 50 μM fluorogenic peptide substrate and allowed to progress for 15 minutes at 37° C. The reaction is terminated by the addition of 100 μl of 100 mM acetate buffer, pH4.0. The rate of proteolysis is directly proportional to the amount of liberated aminomethylcoumarin which is measured by fluorescent spectroscopy (EX 370 nm, EM 430 nm).

IC50 [µg/mL] | SMILES
> 10 | COc1ccc2c(c1)C(CC(=O)NC(CC(C)C)C(=O)NC(CC(C)C)C(=O)NC(C(N)=O)C(C)C)CC2=O (mixture of isomers) [Compound 123]
> 50 | COc1ccc2c(c1)C(CC(=O)NCc1ccc3c(c1)OCO3)CC2=O (racemic) [Compound 163]
> 10 | COc1ccc2c(c1)C(CC(=O)Nc1ccc(Cl)cn1)CC2=O (racemic) [Compound 156]
> 10 | COc1ccc2c(c1)C(CC(=O)NC(CC(C)C)C(=O)NC(CC(C)C)C(=O)O)CC2=O (mixture of isomers) [Compound 172]
> 10 | COc1ccc2c(c1)C(CC(=O)NC(CC(C)C)C(=O)NC(CCCCN)C(N)=O)CC2=O (mixture of isomers) [Compound 138]
> 10 | COc1ccc2c(c1)C(CC(=O)NC(CC(C)C)C(=O)NC(CC(C)C)C(=O)O)CC2=O (mixture of isomers) [Compound 171]
> 10 | COc1ccc2c(c1)C(CC(=O)NC(CC(C)C)C(=O)NC(CCC(N)=O)C(N)=O)CC2=O (mixture of isomers) [Compound 137]
> 10 | CC(C)CC(NC(=O)CC1CC(=O)c2ccccc21)C(=O)NC(CC(C)C)C(=O)NCC(N)=O (mixture of isomers) [Compound 159]
> 10 | COc1ccc2c(c1)C(CC(=O)NC(CC(C)C)C(=O)NC(CO)C(N)=O)CC2=O (mixture of isomers) [Compound 141]
> 10 | COc1ccc2c(c1)C(CC(=O)NC(CC(C)C)C(=O)NC(CC(C)C)C(=O)NC(Cc1ccccc1)C(N)=O)CC2=O (mixture of isomers) [Compound 127]
> 10 | COc1ccc2c(c1)C(CC(=O)Nc1c(C)cccc1[N+](=O)[O-])CC2=O (racemic) [Compound 153]
> 10 | COc1ccc2c(c1)C(CC(=O)Nc1ccc(Cl)c(Cl)c1)CC2=O (racemic) [Compound 157]
> 10 | COc1ccc2c(c1)C(CC(=O)NC(CC(C)C)C(=O)NC(CC(C)C)C(=O)N1CCc3ccccc3C1)CC2=O (mixture of isomers) [Compound 191]
> 10 | COc1ccc2c(c1)C(CC(=O)NCCCc1ccccc1)CC2=O (stereo not shown) [Compound 120]
> 10 | COc1ccc2c(c1)C(CC(=O)N1CCC(O)(c3ccccc3)CC1)CC2=O (stereo not shown) [Compound 151]
> 50 | COCCN(CCOC)C(=O)CC1CC(=O)c2ccc(OC)cc21 (racemic) [Compound 169]
> 10 | COc1ccc2c(c1)C(CC(=O)NC(CC(C)C)C(=O)NC(CC(C)C)C(=O)NC(C(N)=O)C(C)C)CC2=O (mixture of isomers) [Compound 124]
> 50 | COc1ccc(NC(=O)CC2CC(=O)c3ccc(OC)cc32)cc1 (racemic) [Compound 162]
> 50 | COc1ccc2c(c1)C(CC(=O)NCCCc1ccccc1)CC2=O (racemic) [Compound 161]
> 10 | COc1ccc2c(c1)C(CC(=O)NC(C)(C)CO)CC2=O (stereo not shown) [Compound 113]
> 10 | COc1ccc2c(c1)C(CC(=O)NC(CC(C)C)C(=O)NC(CC(C)C)C(=O)NCCCc1ccccc1)CC2=O (mixture of isomers) [Compound 186]
> 10 | COc1ccc2c(c1)C(CC(=O)NC(CC(C)C)C(=O)NC(CC(C)C)C(=O)NC(Cc1ccccc1)C(N)=O)CC2=O (mixture of isomers) [Compound 128]
> 10 | COc1ccc2c(c1)C(CC(=O)NC(CC(C)C)C(=O)NC(CC(C)C)C(=O)NCC1CCCCC1)CC2=O (mixture of isomers) [Compound 188]
> 10 | COc1ccc2c(c1)C(CC(=O)NC(CC(C)C)C(=O)NC(CC(C)C)C(=O)N1CCCC1)CC2=O (mixture of isomers) [Compound 176]
> 10 | COc1ccc2c(c1)C(CC(=O)NC(CC(C)C)C(=O)NC(CC(C)C)C(=O)Nc1ccccc1)CC2=O (mixture of isomers) [Compound 184]
> 10 | CCCC(NC(=O)C(CC(C)C)NC(=O)CC1CC(=O)c2ccc(OC)cc21)C(N)=O (mixture of isomers) [Compound 139]

The remaining lines, values behind:

SMILES | IC50 [µg/mL]
CCCCC(NC(=O)CC1CC(=O)c2ccc(OC)cc21)C(=O)NC(CC(C)C)C(N)=O (mixture of isomers) [Compound 22] | > 10
COc1ccc2c(c1)C(CC(=O)NC(CC(C)C)C(=O)NC(C)(C)C(N)=O)CC2=O (mixture of isomers) [Compound 11] | > 10
COc1ccc2c(c1)C(CC(=O)NC(CC(C)C)C(=O)N1CCCC1C(=O)NCC(N)=O)CC2=O (mixture of isomers) [Compound 92] | > 10
COc1ccc2c(c1)C(CC(=O)NC(C(=O)NC(CC(C)C)C(N)=O)c1ccccc1)CC2=O (mixture of isomers) [Compound 37] | > 10
COc1ccc2c(c1)C(CC(=O)NCCc1ccc(OC)c(OC)c1)CC2=O (stereo not shown) [Compound 72] | > 10
COc1ccc2c(c1)C(CC(=O)N1CCCC1)CC2=O (stereo not shown) [Compound 64] | > 10
CCCC(NC(=O)CC1CC(=O)c2ccc(OC)cc21)C(N)=O (mixture of isomers) [Compound 10] | > 10
COc1ccc2c(c1)C(CC(=O)NCCc1ccccc1)CC2=O (stereo not shown) [Compound 65] | > 10
COc1ccc2c(c1)C(CC(=O)N1CCCC1C(=O)NC(CC(C)C)C(=O)NCC(N)=O)CC2=O (mixture of isomers) [Compound 49] | > 10
COc1ccc2c(c1)C(CC(=O)NC1CCN(Cc3ccccc3)CC1)CC2=O (stereo not shown) [Compound 110] | > 10
COc1ccc2c(c1)C(CC(=O)N1CCC(O)CC1)CC2=O (stereo not shown) [Compound 81] | > 10
COc1ccc2c(c1)C(CC(=O)NCc1ccncc1)CC2=O (stereo not shown) [Compound 104] | > 10
COc1ccc2c(c1)C(CC(=O)NC(CCC(=O)O)C(=O)NC(CC(C)C)C(N)=O)CC2=O (mixture of isomers) [Compound 97] | > 10
COc1ccc2c(c1)C(CC(=O)NC(CC1CCCCC1)C(N)=O)CC2=O (mixture of isomers) [Compound 29] | > 10
COc1ccc2c(c1)C(CC(=O)N1CCCC1C(=O)NC(CC(C)C)C(N)=O)CC2=O (mixture of isomers) [Compound 31] | 10
COc1ccc2c(c1)C(CC(=O)NC(CC(C)C)C(=O)NC(Cc1c[nH]cn1)C(N)=O)CC2=O (mixture of isomers) [Compound 4] | > 10
COc1ccc2c(c1)C(CC(=O)N1CCCC1CO)CC2=O (stereo not shown) [Compound 119] | > 10
COc1ccc2c(c1)C(CC(=O)N(CCC#N)Cc1cccnc1)CC2=O (stereo not shown) [Compound 116] | > 10

SMILES | IC50 [µg/mL]
COc1ccc2c(c1)C(CC(=O)NC(Cc1ccccc1)C(=O)NC(CC(C)C)C(N)=O)CC2=O (mixture of isomers) [Compound 14] | > 10
CCCCC(NC(=O)CC1CC(=O)c2ccc(OC)cc21)C(N)=O (mixture of isomers) [Compound 9] | > 10
COc1ccc2c(c1)C(CC(=O)NC(CC1CCCCC1)C(=O)NC(CC(C)C)C(=O)NCC(N)=O)CC2=O (mixture of isomers) [Compound 46] | > 10
COc1ccc2c(c1)C(CC(=O)NC(CC(C)C)C(=O)NC(CC(C)C)C(N)=O)CC2=O (mixture of isomers) [Compound 2] | 1
COc1ccc2c(c1)C(CC(=O)N(C)C)CC2=O (racemic) [Compound 167] | > 50
COc1ccc2c(c1)C(CC(=O)NCc1ccccc1OC)CC2=O (stereo not shown) [Compound 107] | > 10
COc1ccc2c(c1)C(CC(=O)NC(Cc1ccccc1)C(=O)NC(CC(C)C)C(N)=O)CC2=O (mixture of isomers) [Compound 27] | 10
CCN(CC)C(=O)CC1CC(=O)c2ccc(OC)cc21 (stereo not shown) [Compound 68] | > 10
COc1ccc2c(c1)C(CC(=O)NC(CC(C)C)C(=O)NC(CC(C)C)C(N)=O)CC2=O (mixture of isomers) [Compound 7] | > 10
COc1ccc2c(c1)C(CC(=O)NCc1ccccn1)CC2=O (stereo not shown) [Compound 114] | > 10
COc1ccc2c(c1)C(CC(=O)N1CCSCC1)CC2=O (stereo not shown) [Compound 106] | > 10
COc1ccc2c(c1)C(CC(=O)N(CCO)Cc1ccccc1)CC2=O (stereo not shown) [Compound 76] | > 10
COc1ccc2c(c1)C(CC(=O)NC(CC(C)C)C(=O)NC(C)C(N)=O)CC2=O (mixture of isomers) [Compound 53] | > 10
COc1ccc2c(c1)C(CC(=O)N1CCOCC1)CC2=O (stereo not shown) [Compound 63] | > 10
COc1ccc2c(c1)C(CC(=O)NC(CC(C)C)C(=O)NC(C(N)=O)C(C)C)CC2=O (mixture of isomers) [Compound 33] | > 10
COc1ccc2c(c1)C(CC(=O)NCC(O)CO)CC2=O (stereo not shown) [Compound 111] | > 10
COc1ccc2c(c1)C(CC(=O)NC(CC(C)C)C(=O)N1CCCC1C(N)=O)CC2=O (mixture of isomers) [Compound 54] | > 10
